Measurements: US20250091989A1, “SMALL MOLECULE PROTEIN SYNTHESIS MODULATORS” (Interdict Bio, Inc., priority 2023, published 2025)

Columns and labels:
Assay type in all cases: biochemical
Conditions in all cases: HeLa S3 lysate, sfGFP/mCherry ratio, 2 hrs at 30° C.
ALK = assay: In vitro transcription-translation (IVTT) reporter assay, ALK test sequence
In short: (§1)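 Coupled transcription-translation in HeLa S3 lysate with reporter plasmids encoding mCherry-P2A-3×FLAG-TEST-sfGFP behind an EMCV IRES. Compounds were half-log titrated (30 μM-0.1 μM in DMSO dilution plate) into master mix, then DNA was added. Reactions ran 2 hrs at 30° C, were PBS-quenched and read for fluorescence.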

MYC = assay: In vitro transcription-translation (IVTT) reporter assay, MYC test sequence
In short: as §1

KRAS G12D = assay: In vitro transcription-translation (IVTT) reporter assay, KRAS G12D test sequence
In short: as §1

SMILES | IC50 (ALK) [µM] | IC50 (MYC) [µM] | IC50 (KRAS G12D) [µM]
COc1ccc(C[C@H]2NC[C@H](O)[C@H]2OC(=O)CCN2CC(=O)NC(=O)C2)cc1 [V186859, (2R,3S,4S)-4-hydroxy-2-[(4-methoxyphenyl)methyl]pyrrolidin-3-yl 3-(3,5-dioxopiperazin-1-yl)propanoate; trifluoroacetic acid] | < 10 | < 10 | < 10
COc1ccc(C[C@H]2NC[C@H](O)[C@H]2OC(=O)C2CC(F)C2)cc1 (stereo partly drawn) [V187166, (2R,3S,4S)-4-hydroxy-2-[(4-methoxyphenyl)methyl]pyrrolidin-3-yl 3-fluorocyclobutane-1-carboxylate; trifluoroacetic acid] | < 10 | < 10 | < 10
COc1ccc(C[C@H]2NC[C@H](O)[C@H]2OC(=O)Cc2ccc3ccccc3c2)cc1 [V187123, (2R,3S,4S)-4-hydroxy-2-[(4-methoxyphenyl)methyl]pyrrolidin-3-yl 2-(naphthalen-2-yl)acetate; trifluoroacetic acid] | < 10 | 10 to 20 | > 30
COc1ccc(C[C@H]2NC[C@H](O)[C@H]2OC(=O)C2CN(Cc3ccccc3)C2)cc1 [V000173, (2R,3S,4S)-4-hydroxy-2-[(4-methoxyphenyl)methyl]pyrrolidin-3-yl 1-benzylazetidine-3-carboxylate] | > 30 | > 30 | > 30
CC(=O)O[C@@H]1[C@@H](O)CN[C@@H]1Cc1ccc(Cl)cc1 [V187009, (2R,3S,4S)-2-[(4-chlorophenyl)methyl]-4-hydroxypyrrolidin-3-yl acetate; trifluoroacetic acid] | < 10 | < 10 | < 10
COc1ccc(C[C@H]2NC[C@H](O)[C@H]2OC(=O)CCN2CC(=O)N(C)CC2=O)cc1 [V186850] | 20 to 30 | > 30 | > 30
COc1ccc(C[C@H]2NC[C@H](O)[C@H]2OC(=O)Cc2cc3ccccc3s2)cc1 [V187053, (2R,3S,4S)-4-hydroxy-2-[(4-methoxyphenyl)methyl]pyrrolidin-3-yl 2-(1-benzothiophen-2-yl)acetate] | < 10 | < 10 | < 10
COc1ccc(C[C@H]2NC[C@H](O)C2OC(=O)COCc2ccc3nonc3c2)cc1 (stereo partly drawn) [V187179] | < 10 | < 10 | < 10
COc1ccc(C[C@H]2NC[C@H](O)[C@H]2OC(=O)CCCN2CCNCC2)cc1 [V187694, (2R,3S,4S)-4-hydroxy-2-[(4-methoxyphenyl)methyl]pyrrolidin-3-yl 4-(piperazin-1-yl)butanoate] | < 10 | < 10 | 10 to 20
COc1ccc(C[C@H]2NC[C@H](O)[C@H]2OC(=O)CNc2c(N)c(=O)c2=O)cc1 [V000215, (2R,3S,4S)-4-hydroxy-2-[(4-methoxyphenyl)methyl]pyrrolidin-3-yl 2-[(2-amino-3,4-dioxocyclobut-1-en-1-yl)amino]acetate] | < 10 | < 10 | < 10
COc1ccc(C[C@H]2NC[C@H](O)[C@H]2OC(=O)CCN2CC(=O)NCC2=O)cc1 [V186849, (2R,3S,4S)-4-hydroxy-2-[(4-methoxyphenyl)methyl]pyrrolidin-3-yl 3-(2,5-dioxopiperazin-1-yl)propanoate] | < 10 | 10 to 20 | > 30
COc1ccc(C[C@H]2NC[C@H](O)[C@H]2OC(=O)COCc2ccc3nsnc3c2)cc1 [V187072, (2R,3S,4S)-4-hydroxy-2-[(4-methoxyphenyl)methyl]pyrrolidin-3-yl 2-(2,1,3-benzothiadiazol-5-ylmethoxy)acetate; trifluoroacetic acid] | < 10 | < 10 | < 10
COc1ccc(C[C@H]2NC[C@H](O)[C@H]2OC(=O)CCC2CCOCC2)cc1 [V186990, (2R,3S,4S)-4-hydroxy-2-[(4-methoxyphenyl)methyl]pyrrolidin-3-yl 3-(oxan-4-yl)propanoate; trifluoroacetic acid] | < 10 | < 10 | < 10
COc1ccc(C[C@H]2NC[C@H](O)[C@H]2OC(=O)CCc2cscn2)cc1 [V187173, (2R,3S,4S)-4-hydroxy-2-[(4-methoxyphenyl)methyl]pyrrolidin-3-yl 3-(1,3-thiazol-4-yl)propanoate] | < 10 | < 10 | < 10
COc1ccc(C[C@H]2NC[C@H](O)[C@H]2OC(=O)C2CCS(=N)(=O)CC2)cc1 (stereo partly drawn) [V186712, (2R,3S,4S)-4-hydroxy-2-[(4-methoxyphenyl)methyl]pyrrolidin-3-yl (1 s)-1-imino-1-oxo-1lambda6-thiane-4-carboxylate] | > 30 | > 30 | > 30
COc1ccc(C[C@H]2NC[C@H](O)[C@H]2OC(=O)Cc2ccc(OC(F)(F)F)cc2)cc1 [V187159, (2R,3S,4S)-4-hydroxy-2-[(4-methoxyphenyl)methyl]pyrrolidin-3-yl 2-[4-(trifluoromethoxy)phenyl]acetate] | 10 to 20 | 10 to 20 | > 30
COc1ccc(C[C@H]2NC[C@H](O)[C@H]2OC(=O)C2CC(=O)N2)cc1 (stereo partly drawn) [V186864, (2R,3S,4S)-4-hydroxy-2-[(4-methoxyphenyl)methyl]pyrrolidin-3-yl 4-oxoazetidine-2-carboxylate; trifluoroacetic acid] | < 10 | 10 to 20 | > 30
COc1ccc(C[C@H]2NC[C@H](O)[C@H]2OC(=O)Cc2cccnc2)cc1 [V187057, (2R,3S,4S)-4-hydroxy-2-[(4-methoxyphenyl)methyl]pyrrolidin-3-yl 2-(pyridin-3-yl)acetate] | < 10 | < 10 | < 10
COCCOCCOCC(=O)O[C@@H]1[C@@H](O)CN[C@@H]1Cc1ccc(OC)cc1 [V187184, (2R,3S,4S)-4-hydroxy-2-[(4-methoxyphenyl)methyl]pyrrolidin-3-yl 2-[2-(2-methoxyethoxy)ethoxy]acetate] | < 10 | < 10 | < 10

Next, values leading:

IC50 (ALK) [µM] | IC50 (MYC) [µM] | IC50 (KRAS G12D) [µM] | SMILES
< 10 | 10 to 20 | 20 to 30 | COc1ccc(C[C@H]2NC[C@H](O)[C@H]2OC(=O)C2COC2)cc1 [V0106, (2R,3S,4S)-4-hydroxy-2-[(4-methoxyphenyl)methyl]pyrrolidin-3-yl oxetane-3-carboxylate]
< 10 | < 10 | < 10 | COc1ccc(C[C@H]2NC[C@H](O)[C@H]2OC(=O)CC2COC2)cc1 [V0111, (2R,3S,4S)-4-hydroxy-2-[(4-methoxyphenyl)methyl]pyrrolidin-3-yl 2-(oxetan-3-yl)acetate]
< 10 | < 10 | < 10 | COc1ccc(C[C@H]2NC[C@H](O)[C@H]2OC(=O)COCc2ccon2)cc1 [V187368, (2R,3S,4S)-4-hydroxy-2-[(4-methoxyphenyl)methyl]pyrrolidin-3-yl 2-(1,2-oxazol-3-ylmethoxy)acetate]
< 10 | < 10 | < 10 | COc1ccc(C[C@H]2NC[C@H](O)[C@H]2OC(=O)CC2CC2)cc1 [V0113, (2R,3S,4S)-4-hydroxy-2-[(4-methoxyphenyl)methyl]pyrrolidin-3-yl 2-cyclopropylacetate]
< 10 | < 10 | < 10 | COc1ccc(C[C@H]2NC[C@H](O)[C@H]2OC(=O)CCC2CNC2)cc1 [V186873, (2R,3S,4S)-4-hydroxy-2-[(4-methoxyphenyl)methyl]pyrrolidin-3-yl 3-(azetidin-3-yl)propanoate]
< 10 | < 10 | > 30 | COc1ccc(C[C@H]2NC[C@H](O)[C@H]2OC(=O)C2CCOC2)cc1 (stereo partly drawn) [V186761, (2R,3S,4S)-4-hydroxy-2-[(4-methoxyphenyl)methyl]pyrrolidin-3-yl oxolane-3-carboxylate]
< 10 | < 10 | < 10 | COCCOCC(=O)O[C@@H]1[C@@H](O)CN[C@@H]1Cc1ccc(OC)cc1 [V186783]
< 10 | 10 to 20 | > 30 | COc1ccc(C[C@H]2NC[C@H](O)[C@H]2OC(=O)Cc2nnn[nH]2)cc1 [V187533, (2R,3S,4S)-4-hydroxy-2-[(4-methoxyphenyl)methyl]pyrrolidin-3-yl 2-(1H−1,2,3,4-tetrazol-5-yl)acetate; trifluoroacetic acid]
> 30 | > 30 | > 30 | C=C(F)C(=O)O[C@@H]1[C@@H](O)CN[C@@H]1Cc1ccc(OC)cc1 [V0081, (2R,3S,4S)-4-hydroxy-2-[(4-methoxyphenyl)methyl]pyrrolidin-3-yl 2-fluoroprop-2-enoate]
< 10 | 10 to 20 | > 30 | COc1ccc(C[C@H]2NC[C@H](O)[C@H]2OC(=O)C2CN(C(C)=O)C2)cc1 [V186866, (2R,3S,4S)-4-hydroxy-2-[(4-methoxyphenyl)methyl]pyrrolidin-3-yl 1-acetylazetidine-3-carboxylate]
20 to 30 | > 30 | > 30 | COc1ccc(C[C@H]2NC[C@H](O)[C@H]2OC(=O)C2CNC2)cc1 [V0107, (2R,3S,4S)-4-hydroxy-2-[(4-methoxyphenyl)methyl]pyrrolidin-3-yl azetidine-3-carboxylate]
< 10 | < 10 | < 10 | C#Cc1ccc(C[C@H]2NC[C@H](O)[C@H]2OC(C)=O)cc1 [V186940]
< 10 | > 30 | > 30 | COc1ccc(C[C@H]2NC[C@H](O)[C@H]2OC(=O)[C@H]2CCCO2)cc1 [V186824, (2R,3S,4S)-4-hydroxy-2-[(4-methoxyphenyl)methyl]pyrrolidin-3-yl (2R)-oxolane-2-carboxylate]
